Target: LMP7 (purified human immunoproteasome) (Homo sapiens, UniProt P28062)
Experiment: Determination of LMP7 activity (fluorescence intensity assay, Suc-LLVY-AMC)
Format: biochemical
Details: incubation for 20 minutes
Experimental: Determination of LMP7 Activity
Measurement of LMP7 inhibition is performed in 384 well format based on fluorescence intensity assay.
Purified human immunoproteasome (0.25 nM) and serial diluted compounds in DMSO (range of concentrations from 30 μM to 15 pM) or controls are incubated for 20 minutes or 120 minutes (long incubation) at 25° C. in assay buffer containing 50 mM Tris pH 7.4, 0.03% SDS, 1 mM EDTA and 1% DMSO. The reaction is initiated by the addition of the fluorogenic peptide substrate, Suc-LLVY-AMC (Bachem I-1395), at a concentration of 40 μM. After 60 minutes of incubation at 37° C., fluorescence intensity is measured at λex=350 nm and λem=450 nm with a fluorescence reader (Perkin Elmer Envision reader or equivalent).
Unless indicated otherwise the results are obtained after incubation for 20 minutes.

Row | Compound | IC50 [nM]
1 | CN(CCC(=O)N[C@@H](Cc1ccccc1)B(O)O)C(=O)c1ccccc1 [Compound No. 10, [(1R)-1-[3-[benzoyl(methyl)amino]propanoylamino]-2-phenyl-ethyl]boronic acid] | 50 to 500
2 | CCN(CCC(=O)N[C@@H](Cc1ccccc1)B(O)O)C(=O)c1ccccc1C [Compound No. 12, [(1R)-1-[3-[ethyl-(2-methylbenzoyl)amino]propanoylamino]-2-phenyl-ethyl]boronic acid] | 50 to 500
3 | CCN(CCC(=O)N[C@@H](Cc1ccccc1)B(O)O)C(=O)c1cccc(C)c1 [Compound No. 13, [(1R)-1-[3-[ethyl-(3-methylbenzoyl)amino]propanoylamino]-2-phenyl-ethyl]boronic acid] | 50 to 500
4 | Cc1ccc(C[C@H](NC(=O)CCN(C(C)C)S(C)(=O)=O)B(O)O)cc1 [Compound No. 15, [(1R)-1-[3-[isopropyl(methylsulfonyl)amino]propanoylamino]-2-(p-tolyl)ethyl]boronic acid] | 50 to 500
5 | CCN(CC(=O)N[C@@H](Cc1ccccc1)B(O)O)C(=O)c1ccccc1 [Compound No. 17, [(1R)-1-[[2-[benzoyl(ethyl)amino]acetyl]amino]-2-phenyl-ethyl]boronic acid] | 50 to 500
6 | CCc1cccc(C[C@H](NC(=O)CCCCS(C)(=O)=O)B(O)O)c1 [Compound No. 22, [(1R)-2-(3-ethylphenyl)-1-(5-methylsulfonylpentanoylamino)ethyl]-boronic acid] | 50 to 500

Now from value to molecule:

Row | IC50 [nM] | Compound
7 | 50 to 500 | CC(=O)N(CCC(=O)N[C@@H](Cc1ccccc1)B(O)O)c1ccccc1 [Compound No. 1, [(1R)-1-[3-(N-acetylanilino)propanoylamino]-2-phenyl-ethyl]boronic acid]
8 | < 50 | CCS(=O)(=O)N(CCC(=O)N[C@@H](Cc1ccc(C)cc1)B(O)O)c1ccccc1 [Compound No. 2, [(1R)-1-[3-(N-ethylsulfonylanilino)propanoylamino]-2-(p-tolyl)ethyl]boronic acid]
9 | < 50 | CCN(CCC(=O)N[C@@H](Cc1ccc(C)cc1)B(O)O)S(=O)(=O)c1ccccc1 [Compound No. 5, [(1R)-1-[3-[benzenesulfonyl(ethyl)amino]propanoylamino]-2-(p-tolyl)ethyl]boronic acid]
10 | < 50 | Cc1ccc(C[C@H](NC(=O)CCN(C(C)C)S(=O)(=O)c2ccccc2)B(O)O)cc1 [Compound No. 6, [(1R)-1-[3-[benzenesulfonyl(isopropyl)amino]propanoylamino]-2-(p-tolyl)ethyl]boronic acid]
11 | < 50 | Cc1ccc(C[C@H](NC(=O)CCN(C)S(=O)(=O)c2ccccc2)B(O)O)cc1 [Compound No. 7, [(1R)-1-[3-[benzenesulfonyl(methyl)amino]propanoylamino]-2-(p-tolyl)ethyl]boronic acid]
12 | < 50 | CCN(CCC(=O)N[C@@H](Cc1ccc(C)cc1)B(O)O)S(=O)(=O)CC [Compound No. 11, [(1R)-1-[3-[ethyl(ethylsulfonyl)amino]propanoylamino]-2-(p-tolyl)ethyl]boronic acid]
13 | < 50 | CS(=O)(=O)CCC(=O)N[C@@H](Cc1coc2ccccc12)B(O)O [Compound No. 23, [(1R)-2-(benzofuran-3-yl)-1-(3-methylsulfonylpropanoylamino)ethyl]-boronic acid]
